The target in one test is full-length human LSD1 (Homo sapiens (Human), UniProt O60341). As to the kind of experiment: In vitro enzyme inhibition assay LSD-1 (TR-FRET). Format: biochemical. The following applies: TR-FRET, 0.1 nM LSD1, 50 nM H3K4me1-biotin peptide, 2 μM FAD, pH7.3; read-out: LSD1 IC50. Here is the method:
This assay determines the ability of a test compound to inhibit LSD1 demethylase activity.
The enzymatic assay of LSD1 activity is based on Time Resolved-Fluorescence Resonance Energy Transfer (TR-FRET) detection.
The ability of the compounds disclosed herein to inhibit LSD1 activity was quantified and the respective IC50 value was determined. Table 5 provides the IC50 values of various substituted heterocyclic compounds disclosed herein.

A further test deals with THP-1 (AML) cells. The test can be described thus: LSD1 CD11b cellular assay (flow cytometry). The following applies: CD11b expression in THP-1 (AML) cells, flow cytometry, 4 days incubation, read-out: Cellular IC50. It is filed as cell-based. Summed up:
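THP-1 AML cells treated with serially diluted compound (0.2% DMSO final) for 4 days at 37 °C, 5% CO2. CD11b expression measured by flow cytometry with DAPI staining; IC50 derived from percent CD11b-positive cells versus inhibitor concentration.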

Read-outs that look alike come from different tables or passages of the source. A value given as a limit tells only on which side of the number the result lay.

Regarding `CNC1CCN(c2ncc(-c3cnn(CC(F)(F)F)c3)c(-c3ccc(C#N)c(F)c3)n2)CC1` [Example 89, 2-fluoro-4-[2-[4-(methylamino)piperidin-1-yl]-5-[1-(2,2,2-trifluoroethyl)pyrazol-4-yl]pyrimidin-4-yl]benzonitrile], the IC50 at full-length human LSD1 is less than 100 nM; in the test on THP-1 (AML) cells (Homo sapiens, 96 h), less than 100 nM.
Consider `N#Cc1ccc(-c2nc(N3CCC(N)CC3)ncc2-c2ccc3nc[nH]c3c2)cc1` [Example 91, 4-[2-(4-aminopiperidin-1-yl)-5-(3H-benzimidazol-5-yl)pyrimidin-4-yl]benzonitrile], for which the IC50 at full-length human LSD1 is less than 100 nM; with THP-1 (AML) cells (Homo sapiens, 96 h), 100 to 1000 nM.
On the same counts, the results for `Cc1c2cc(-c3cnc(N4CCC(N)CC4)nc3-c3ccc(C#N)c(F)c3)ccc2nn1C` [Example 92, 4-[2-(4-aminopiperidin-1-yl)-5-(2,3-dimethylindazol-5-yl)pyrimidin-4-yl]-2-fluorobenzonitrile] are less than 100 nM and less than 100 nM.
For `Cc1nn(C)c2ccc(-c3cnc(N4CCC(N)CC4)nc3-c3ccc(C#N)c(F)c3)cc12` [Example 93, 4-[2-(4-aminopiperidin-1-yl)-5-(1,3-dimethylindazol-5-yl)pyrmidin-4-yl]-2-fluorobenzonitrile], the IC50 on full-length human LSD1 was less than 100 nM; in the test with THP-1 (AML) cells (Homo sapiens, 96 h), less than 100 nM.
Regarding `N#Cc1ccc(-c2nc(N3CCC(N)CC3)ncc2C#CC2(O)CCOC2)cc1F` (stereo not shown) [Example 94, 4-[2-(4-aminopiperidin-1-yl)-5-[2-(3-hydroxyoxolan-3-yl)ethynyl]pyrimidin-4-yl]-2-fluorobenzonitrile], the IC50 on full-length human LSD1 was less than 100 nM; in the test on THP-1 (AML) cells (Homo sapiens, 96 h), less than 100 nM.
Turning to `Cn1nc2ccc(-c3cnc(N4CCC(N)CC4)nc3-c3ccc(C#N)c(F)c3)cc2c1N` [Example 95, 4-[5-(3-amino-2-methylindazol-5-yl)-2-(4-aminopiperidin-1-yl)pyrimidin-4-yl]-2-fluorobenzonitrile], the IC50 at full-length human LSD1 was less than 100 nM; in the test on THP-1 (AML) cells (Homo sapiens, 96 h), less than 100 nM.
Take `Cn1nnc2cc(-c3cnc(N4CCC(N)CC4)nc3-c3ccc(C#N)c(F)c3)ccc21` [Example 96, 4-[2-(4-aminopiperidin-1-yl)-5-(1-methylbenzotriazol-5-yl)pyrimidin-4-yl]-2-fluorobenzonitrile]: the IC50 on full-length human LSD1 is less than 100 nM; with THP-1 (AML) cells (Homo sapiens, 96 h) it was less than 100 nM.
On to `N#Cc1ccc(-c2nc(N3CCC(N)CC3)ncc2C#CC2(O)CCOCC2)cc1F` [Example 97, 4-[2-(4-aminopiperidin-1-yl)-5-[2-(4-hydroxyoxan-4-yl)ethynyl]pyrimidin-4-yl]-2-fluorobenzonitrile], for which the IC50 at full-length human LSD1 was less than 100 nM; in the test with THP-1 (AML) cells (Homo sapiens, 96 h), 100 to 1000 nM.
The matching figures for `Cn1nncc1C#Cc1cnc(N2CCC(N)CC2)nc1-c1ccc(C#N)c(F)c1` [Example 98]: less than 100 nM and 100 to 1000 nM.
On the same counts, the results for `Cn1ccc(C#Cc2cnc(N3CCC(N)CC3)nc2-c2ccc(C#N)c(F)c2)n1` [Example 99, 4-[2-(4-aminopiperidin-1-yl)-5-[2-(1-methylpyrazol-3-yl)ethynyl]pyrimidin-4-yl]-2-fluorobenzonitrile] are less than 100 nM and less than 100 nM.
Consider `Cn1cc(C#Cc2cnc(N3CCC(N)CC3)nc2-c2ccc(C#N)c(F)c2)nn1` [Example 100], for which the half-maximal inhibitory concentration (IC50) on full-length human LSD1 is less than 100 nM; in the test with THP-1 (AML) cells (Homo sapiens, 96 h), less than 100 nM.
In the case of `Cn1ncc2cc(-c3cnc(N4CCC(N)C(O)C4)nc3-c3ccc(C#N)c(F)c3)ccc21` (stereo not shown) [Example 101, 4-[2-(4-amino-3-hydroxypiperidin-1-yl)-5-(1-methylindazol-5-yl)pyrimidin-4-yl]-2-fluorobenzonitrile], the IC50 at full-length human LSD1 was less than 100 nM; in the test on THP-1 (AML) cells (Homo sapiens, 96 h), less than 100 nM.
In the case of `Cn1cc(C#Cc2cnc(N3CCC(N)CC3)nc2-c2ccc(C#N)c(F)c2)cn1` [Example 102, 4-[2-(4-aminopiperidin-1-yl)-5-[2-(1-methylpyrazol-4-yl)ethynyl]pyrimidin-4-yl]-2-fluorobenzonitrile], the IC50 is less than 100 nM on full-length human LSD1 and less than 100 nM in the test with THP-1 (AML) cells (Homo sapiens, 96 h).
Regarding `N#Cc1ccc(-c2nc(N3CCC(N)C(O)C3)ncc2-c2cnn(CC(F)(F)F)c2)cc1F` (stereo not shown) [Example 103, 4-[2-(4-amino-3-hydroxypiperidin-1-yl)-5-[1-(2,2,2-trifluoroethyl)pyrazol-4-yl]pyrimidin-4-yl]-2-fluorobenzonitrile], the IC50 at full-length human LSD1 is less than 100 nM; in the test on THP-1 (AML) cells (Homo sapiens, 96 h), 100 to 1000 nM.
With `Cn1ncc2cc(-c3cnc(N4CCC(N)C(O)C4)nc3-c3ccc(C#N)c(F)c3)ccc21` (stereo not shown) [Example 104, 4-[2-(4-amino-3-hydroxypiperidin-1-yl)-5-(1-methylindazol-5-yl)pyrimidin-4-yl]-2-fluorobenzonitrile], the IC50 on full-length human LSD1 and in the test on THP-1 (AML) cells was less than 100 nM throughout.
Take `Cn1nnc2cc(-c3cnc(N4CCC(N)CC4)nc3-c3ccc(C#N)c(F)c3)c(F)cc21` [Example 105, 4-[2-(4-aminopiperidin-1-yl)-5-(6-fluoro-1-methylbenzotriazol-5-yl)pyrimidin-4-yl]-2-fluorobenzonitrile]: the IC50 on full-length human LSD1 is less than 100 nM; in the test on THP-1 (AML) cells (Homo sapiens, 96 h), less than 100 nM.
Regarding `Cn1nccc1C#Cc1cnc(N2CCC(N)CC2)nc1-c1ccc(C#N)c(F)c1` [Example 106, 4-[2-(4-aminopiperidin-1-yl)-5-[2-(2-methylpyrazol-3-yl)ethynyl]pyrimidin-4-yl]-2-fluorobenzonitrile], the IC50 on full-length human LSD1 is less than 100 nM; with THP-1 (AML) cells (Homo sapiens, 96 h), 100 to 1000 nM.
On the same counts, the results for `Cn1cc2cc(-c3cnc(N4CCC(N)C(O)C4)nc3-c3ccc(C#N)c(F)c3)ccc2n1` (stereo not shown) [Example 107, 4-[2-(4-amino-3-hydroxypiperidin-1-yl)-5-(2-methylindazol-5-yl)pyrimidin-4-yl]-2-fluorobenzonitrile] are less than 100 nM and less than 100 nM.
The matching figures for `Cn1cc2cc(-c3cnc(N4CCCC(N)C4)nc3-c3ccc(C#N)c(F)c3)ccc2n1` (stereo not shown) [Example 108, 4-[2-(3-aminopiperidin-1-yl)-5-(2-methylindazol-5-yl)pyrimidin-4-yl]-2-fluorobenzonitrile]: less than 100 nM and less than 100 nM.
On the same counts, the results for `Cn1cc2cc(-c3cnc(N4CCNCC4)nc3-c3ccc(C#N)c(F)c3)ccc2n1` [Example 109, 2-fluoro-4-[5-(2-methylindazol-5-yl)-2-piperazin-1-ylpyrimidin-4-yl]benzonitrile] are less than 100 nM and 100 to 1000 nM.
In the case of `Cn1cc2cc(-c3cnc(N4CCCNCC4)nc3-c3ccc(C#N)c(F)c3)ccc2n1` [Example 110, 4-[2-(1,4-diazepan-1-yl)-5-(2-methylindazol-5-yl)pyrimidin-4-yl]-2-fluorobenzonitrile], the IC50 at full-length human LSD1 is less than 100 nM; in the test on THP-1 (AML) cells (Homo sapiens, 96 h), less than 100 nM.
As for `Cn1ncc2cc(-c3cnc(N4CCC(N)C(F)C4)nc3-c3ccc(C#N)c(F)c3)ccc21` (stereo not shown) [Example 111, 4-[2-(4-amino-3-fluoropiperidin-1-yl)-5-(1-methylindazol-5-yl)pyrimidin-4-yl]-2-fluorobenzonitrile], the IC50 is less than 100 nM at full-length human LSD1 and less than 100 nM with THP-1 (AML) cells (Homo sapiens, 96 h).
`Cn1cc2cc(-c3cnc(N4CCC(N)C(F)C4)nc3-c3ccc(C#N)c(F)c3)ccc2n1` (stereo not shown) [Example 112, 4-[2-(4-amino-3-fluoropiperidin-1-yl)-5-(2-methylindazol-5-yl)pyrimidin-4-yl]-2-fluorobenzonitrile]: the IC50 on full-length human LSD1 was less than 100 nM; in the test with THP-1 (AML) cells (Homo sapiens, 96 h), less than 100 nM.

The record behind these values is patent US10131664B2 (Celgene Quanticel Research, Inc., priority 2013, dated 2018).
